From paper PMC9007595 (Molecular microbiology, 2020)

T1: Mtb HtpG (Mycobacterium tuberculosis, UniProt P9WMJ7)
T1 sequence (P9WMJ7 1-647): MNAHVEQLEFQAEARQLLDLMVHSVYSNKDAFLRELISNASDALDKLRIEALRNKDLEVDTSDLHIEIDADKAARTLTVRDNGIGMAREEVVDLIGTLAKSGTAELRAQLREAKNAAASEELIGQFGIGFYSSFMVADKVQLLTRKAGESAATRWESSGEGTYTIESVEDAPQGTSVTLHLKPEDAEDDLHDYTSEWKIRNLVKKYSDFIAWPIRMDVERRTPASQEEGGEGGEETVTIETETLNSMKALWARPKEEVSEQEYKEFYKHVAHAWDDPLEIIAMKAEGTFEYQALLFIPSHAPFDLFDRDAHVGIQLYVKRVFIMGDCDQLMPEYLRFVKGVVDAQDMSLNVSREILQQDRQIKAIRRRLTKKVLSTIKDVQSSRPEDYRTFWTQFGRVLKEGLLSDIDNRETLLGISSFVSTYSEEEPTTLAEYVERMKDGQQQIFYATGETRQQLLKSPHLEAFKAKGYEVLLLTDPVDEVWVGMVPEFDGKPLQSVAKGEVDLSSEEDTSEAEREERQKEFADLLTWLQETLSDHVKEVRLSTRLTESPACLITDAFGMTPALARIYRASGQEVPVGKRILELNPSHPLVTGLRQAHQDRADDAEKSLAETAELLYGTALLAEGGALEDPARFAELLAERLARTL

B1: purified Mtb HtpG (size exclusion chromatography) (natural protein)
chain: T1 sequence (P9WMJ7 1-647)

Legend:
Mtb HtpG = target: T1, Mtb HtpG; experiment: […]; type: binding
[1] = target: yeast Hsp90 (S. cerevisiae Hsp82) (Saccharomyces cerevisiae, UniProt P02829); experiment: ATPase activity assay with purified protein; type: biochemical
SEC = target: the molecule itself; experiment: SEC

Chain of yeast Hsp90 (S. cerevisiae Hsp82) (P02829 whole entry): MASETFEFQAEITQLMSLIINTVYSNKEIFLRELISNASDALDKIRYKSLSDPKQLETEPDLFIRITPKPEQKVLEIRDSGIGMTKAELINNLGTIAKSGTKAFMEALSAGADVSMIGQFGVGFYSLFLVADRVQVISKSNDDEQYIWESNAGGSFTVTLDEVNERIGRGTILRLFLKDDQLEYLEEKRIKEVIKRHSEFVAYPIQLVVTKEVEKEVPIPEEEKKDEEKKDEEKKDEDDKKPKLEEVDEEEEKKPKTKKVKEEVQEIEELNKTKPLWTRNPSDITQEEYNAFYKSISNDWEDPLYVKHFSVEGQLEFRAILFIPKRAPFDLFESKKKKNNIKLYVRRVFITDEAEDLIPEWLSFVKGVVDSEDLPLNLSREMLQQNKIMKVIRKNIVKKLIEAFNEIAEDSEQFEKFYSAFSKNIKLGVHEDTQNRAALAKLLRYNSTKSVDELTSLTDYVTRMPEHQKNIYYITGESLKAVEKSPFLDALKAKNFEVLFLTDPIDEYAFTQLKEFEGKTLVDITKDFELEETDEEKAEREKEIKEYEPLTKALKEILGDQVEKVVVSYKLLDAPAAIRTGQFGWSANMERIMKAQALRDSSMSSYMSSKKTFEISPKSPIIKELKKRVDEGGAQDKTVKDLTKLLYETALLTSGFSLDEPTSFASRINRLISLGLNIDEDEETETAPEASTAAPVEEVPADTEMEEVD

Molecule	Kd (Mtb HtpG) [µM]	ATPase activity assay with purified protein (Figure S19) [1]	binding result (SEC)
COC1=C2C[C@@H](C)C[C@H](OC)[C@H](O)[C@@H](C)/C=C(\C)[C@H](OC(N)=O)[C@@H](OC)/C=C\C=C(/C)C(=O)NC(=CC1=O)C2=O [GA, geldanamycin]	~15.7	Both proteins exhibited low ATPase activity that was inhibited by GA (Figure S19)	
B1			binds
